Results from ChEMBL document CHEMBL1201862, “PubChem BioAssay data set” (2004).
Active and inactive are the calls of the source.

What was measured:
Cytochrome P450 3A4 = Cytochrome P450 3A4 (Homo sapiens, UniProt P08684); conditions: Potency;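 note: confirmatory qHTS run detecting inhibitors and substrates of CYP3A4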
[1] = biological target: T1, Voltage-gated N-type calcium channel alpha-1B subunit/Amyloid beta A4 precursor protein-binding family A member 1 (Homo sapiens, UniProt Q00975+Q02410); type: protein assay
T1 sequence (Q00975 whole entry): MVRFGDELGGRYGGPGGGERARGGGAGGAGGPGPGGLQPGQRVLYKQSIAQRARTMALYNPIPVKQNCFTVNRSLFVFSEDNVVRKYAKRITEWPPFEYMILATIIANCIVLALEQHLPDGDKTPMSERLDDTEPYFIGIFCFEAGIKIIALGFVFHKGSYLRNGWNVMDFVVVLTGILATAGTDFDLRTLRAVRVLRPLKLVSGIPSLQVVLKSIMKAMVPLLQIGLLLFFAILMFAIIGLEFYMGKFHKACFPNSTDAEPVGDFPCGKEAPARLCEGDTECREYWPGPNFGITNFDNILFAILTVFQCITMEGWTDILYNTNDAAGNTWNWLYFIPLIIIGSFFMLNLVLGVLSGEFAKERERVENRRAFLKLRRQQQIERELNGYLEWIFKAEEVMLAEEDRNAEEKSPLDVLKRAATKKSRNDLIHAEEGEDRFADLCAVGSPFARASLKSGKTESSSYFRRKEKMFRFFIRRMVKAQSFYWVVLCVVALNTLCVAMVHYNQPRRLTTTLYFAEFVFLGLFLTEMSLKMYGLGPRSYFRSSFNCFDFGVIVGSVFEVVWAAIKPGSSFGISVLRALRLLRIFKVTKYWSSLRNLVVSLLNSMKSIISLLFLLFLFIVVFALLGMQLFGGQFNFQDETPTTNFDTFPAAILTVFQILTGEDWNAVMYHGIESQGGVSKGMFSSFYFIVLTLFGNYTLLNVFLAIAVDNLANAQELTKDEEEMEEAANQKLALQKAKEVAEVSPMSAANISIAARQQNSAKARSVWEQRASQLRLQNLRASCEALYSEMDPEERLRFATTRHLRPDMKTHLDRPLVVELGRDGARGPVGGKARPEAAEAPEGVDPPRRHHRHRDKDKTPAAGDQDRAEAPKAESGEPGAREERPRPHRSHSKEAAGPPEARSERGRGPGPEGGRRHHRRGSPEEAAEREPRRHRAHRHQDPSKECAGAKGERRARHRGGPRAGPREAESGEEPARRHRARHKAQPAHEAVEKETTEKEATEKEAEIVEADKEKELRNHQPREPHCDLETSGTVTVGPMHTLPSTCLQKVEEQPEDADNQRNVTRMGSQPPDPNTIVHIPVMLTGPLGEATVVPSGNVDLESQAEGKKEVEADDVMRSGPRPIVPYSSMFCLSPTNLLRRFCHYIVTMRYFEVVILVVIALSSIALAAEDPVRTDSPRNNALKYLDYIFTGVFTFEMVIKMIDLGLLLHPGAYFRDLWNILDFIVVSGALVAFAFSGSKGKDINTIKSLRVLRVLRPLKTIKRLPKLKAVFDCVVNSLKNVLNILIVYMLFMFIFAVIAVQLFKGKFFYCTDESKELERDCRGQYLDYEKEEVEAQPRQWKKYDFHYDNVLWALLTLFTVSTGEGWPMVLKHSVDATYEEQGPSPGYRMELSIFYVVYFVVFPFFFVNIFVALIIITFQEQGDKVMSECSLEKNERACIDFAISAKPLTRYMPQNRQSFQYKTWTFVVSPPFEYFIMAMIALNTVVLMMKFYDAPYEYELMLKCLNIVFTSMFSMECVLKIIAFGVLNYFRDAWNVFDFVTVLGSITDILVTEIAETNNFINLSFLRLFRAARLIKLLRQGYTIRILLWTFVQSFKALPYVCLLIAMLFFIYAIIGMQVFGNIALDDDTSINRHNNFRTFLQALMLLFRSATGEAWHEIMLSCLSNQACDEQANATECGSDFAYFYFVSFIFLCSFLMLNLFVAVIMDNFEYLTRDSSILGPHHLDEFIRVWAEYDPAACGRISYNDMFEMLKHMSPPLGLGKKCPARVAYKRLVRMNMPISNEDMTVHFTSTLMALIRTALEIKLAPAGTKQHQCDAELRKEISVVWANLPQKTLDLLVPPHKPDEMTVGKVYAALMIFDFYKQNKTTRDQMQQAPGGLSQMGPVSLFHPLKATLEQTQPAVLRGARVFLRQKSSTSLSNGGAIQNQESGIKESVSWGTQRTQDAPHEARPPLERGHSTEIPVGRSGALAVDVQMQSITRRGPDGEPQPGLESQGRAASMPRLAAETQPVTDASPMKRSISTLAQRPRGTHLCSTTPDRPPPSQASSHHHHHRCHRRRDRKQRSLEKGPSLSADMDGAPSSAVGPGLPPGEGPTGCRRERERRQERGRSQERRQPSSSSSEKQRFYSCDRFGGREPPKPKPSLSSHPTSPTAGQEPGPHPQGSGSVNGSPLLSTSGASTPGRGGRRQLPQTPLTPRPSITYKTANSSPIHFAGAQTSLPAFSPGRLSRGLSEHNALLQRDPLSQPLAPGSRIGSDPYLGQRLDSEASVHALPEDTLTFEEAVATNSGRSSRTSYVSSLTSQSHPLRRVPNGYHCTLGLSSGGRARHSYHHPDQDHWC
T1 sequence (Q02410 whole entry): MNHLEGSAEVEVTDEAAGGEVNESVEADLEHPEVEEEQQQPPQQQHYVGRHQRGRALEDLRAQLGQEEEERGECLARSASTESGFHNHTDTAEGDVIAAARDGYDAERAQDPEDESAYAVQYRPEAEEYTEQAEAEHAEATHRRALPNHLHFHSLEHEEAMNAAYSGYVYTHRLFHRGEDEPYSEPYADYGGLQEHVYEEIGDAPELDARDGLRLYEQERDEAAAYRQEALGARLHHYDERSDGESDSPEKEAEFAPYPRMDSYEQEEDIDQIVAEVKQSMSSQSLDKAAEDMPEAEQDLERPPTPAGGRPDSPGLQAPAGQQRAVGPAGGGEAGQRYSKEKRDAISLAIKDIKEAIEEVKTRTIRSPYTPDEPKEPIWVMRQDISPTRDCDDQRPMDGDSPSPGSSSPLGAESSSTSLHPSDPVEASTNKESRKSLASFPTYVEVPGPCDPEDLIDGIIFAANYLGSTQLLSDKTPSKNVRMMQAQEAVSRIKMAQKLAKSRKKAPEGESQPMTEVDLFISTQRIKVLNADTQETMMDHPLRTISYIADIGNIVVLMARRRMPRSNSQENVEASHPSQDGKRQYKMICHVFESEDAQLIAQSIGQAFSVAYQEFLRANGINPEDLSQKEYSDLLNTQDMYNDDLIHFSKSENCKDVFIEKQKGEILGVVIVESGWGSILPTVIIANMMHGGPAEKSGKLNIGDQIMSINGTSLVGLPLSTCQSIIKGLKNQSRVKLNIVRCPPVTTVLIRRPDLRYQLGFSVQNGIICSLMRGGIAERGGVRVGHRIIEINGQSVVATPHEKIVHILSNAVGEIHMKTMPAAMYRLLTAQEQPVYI

[2] = biological target: T1, Voltage-gated N-type calcium channel alpha-1B subunit/Amyloid beta A4 precursor protein-binding family A member 1; type: protein assay; remark: listed apart in the source
[3] = biological target: Glyceraldehyde-3-phosphate dehydrogenase (Homo sapiens, UniProt P04406)
Glyceraldehyde-3-phosphate dehydrogenase, sequence (P04406 whole entry): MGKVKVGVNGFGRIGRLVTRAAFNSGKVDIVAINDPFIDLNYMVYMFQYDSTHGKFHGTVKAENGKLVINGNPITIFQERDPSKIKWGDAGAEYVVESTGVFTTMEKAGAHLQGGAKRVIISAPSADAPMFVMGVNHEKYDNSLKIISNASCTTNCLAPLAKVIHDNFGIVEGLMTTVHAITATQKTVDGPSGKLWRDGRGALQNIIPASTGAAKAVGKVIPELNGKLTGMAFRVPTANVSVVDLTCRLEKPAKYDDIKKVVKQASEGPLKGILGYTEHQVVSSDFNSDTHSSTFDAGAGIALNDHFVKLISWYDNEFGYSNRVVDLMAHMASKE

[4] = biological target: T2, Heat shock factor protein 1 (Mus musculus, UniProt P38532); assay: HSF1 potentiators in luciferase reporter cells, confirmation, cell-based, NIH3T3, luminescence, dose retest (AID 435004); type: functional;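 note: stress induced by proteasome inhibitor MG132 added 30 min after compound; luciferase reporter driven by HSF1 response element in NIH3T3 cells; actives raise luminescence as potentiators of the MG132 stress response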
T2 sequence (P38532 whole entry): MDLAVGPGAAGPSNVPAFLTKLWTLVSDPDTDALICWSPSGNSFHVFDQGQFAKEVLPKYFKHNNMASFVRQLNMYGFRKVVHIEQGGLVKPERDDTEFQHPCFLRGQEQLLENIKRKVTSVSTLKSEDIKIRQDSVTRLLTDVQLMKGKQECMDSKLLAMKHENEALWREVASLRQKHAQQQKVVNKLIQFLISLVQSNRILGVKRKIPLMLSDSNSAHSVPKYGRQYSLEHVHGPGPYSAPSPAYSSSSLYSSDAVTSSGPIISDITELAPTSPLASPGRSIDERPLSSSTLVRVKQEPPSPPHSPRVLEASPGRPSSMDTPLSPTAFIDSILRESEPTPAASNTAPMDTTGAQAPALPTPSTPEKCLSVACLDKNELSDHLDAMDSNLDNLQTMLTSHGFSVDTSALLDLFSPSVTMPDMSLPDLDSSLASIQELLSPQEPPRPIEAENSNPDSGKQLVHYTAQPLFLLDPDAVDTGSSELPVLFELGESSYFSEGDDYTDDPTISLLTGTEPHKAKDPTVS

[5] = biological target: DNA dC->dU-editing enzyme APOBEC-3A (Homo sapiens, UniProt P31941); assay: Dose Response confirmation of small molecule APOBEC3A DNA Deaminase Inhibitors via a fluorescence-based single-stranded DNA deaminase assay. [Related pubchem assays (depositor defined):AID493011, AID493024]; type: functional
DNA dC->dU-editing enzyme APOBEC-3A, sequence (P31941 whole entry): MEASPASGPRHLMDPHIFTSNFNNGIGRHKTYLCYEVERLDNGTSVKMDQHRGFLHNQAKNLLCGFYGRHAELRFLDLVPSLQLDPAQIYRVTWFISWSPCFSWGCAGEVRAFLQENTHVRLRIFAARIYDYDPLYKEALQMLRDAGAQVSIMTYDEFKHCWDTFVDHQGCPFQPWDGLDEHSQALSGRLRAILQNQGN

[6] = biological target: DNA dC->dU-editing enzyme APOBEC-3G (Homo sapiens, UniProt Q9HC16); type: functional;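 note: Dose-response counterscreen measuring inhibition of APOBEC3G DNA deaminase activity, run while confirming APOBEC3A inhibitors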
DNA dC->dU-editing enzyme APOBEC-3G, sequence (Q9HC16 whole entry): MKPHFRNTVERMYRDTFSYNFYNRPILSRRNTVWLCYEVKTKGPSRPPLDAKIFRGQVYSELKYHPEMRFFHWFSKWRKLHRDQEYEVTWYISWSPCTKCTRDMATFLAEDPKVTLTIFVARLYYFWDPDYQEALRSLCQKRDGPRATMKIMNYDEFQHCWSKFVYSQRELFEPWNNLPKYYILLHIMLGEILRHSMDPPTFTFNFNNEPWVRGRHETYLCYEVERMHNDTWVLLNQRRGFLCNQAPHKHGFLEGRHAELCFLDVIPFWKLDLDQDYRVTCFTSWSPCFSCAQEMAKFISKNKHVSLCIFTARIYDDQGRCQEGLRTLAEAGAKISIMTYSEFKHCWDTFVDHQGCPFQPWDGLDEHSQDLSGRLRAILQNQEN

[7] = biological target: Eukaryotic translation initiation factor 4E (Mus musculus, UniProt P63073); assay: eIF4E–eIF4G protein interaction inhibitors, dose response, biochemical, TR-FRET (AID 855); type: functional;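 note: potency for disrupting eIF4E binding to eIF4GI seen as loss of FRET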
Eukaryotic translation initiation factor 4E, sequence (P63073 whole entry): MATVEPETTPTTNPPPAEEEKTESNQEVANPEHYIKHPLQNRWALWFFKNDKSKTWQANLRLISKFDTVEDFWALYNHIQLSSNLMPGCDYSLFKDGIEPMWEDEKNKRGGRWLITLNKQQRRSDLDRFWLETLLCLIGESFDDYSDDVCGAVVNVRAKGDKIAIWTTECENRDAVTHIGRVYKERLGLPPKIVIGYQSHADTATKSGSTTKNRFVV

[8] = system: Streptococcus sp. 'group A'; assay: growth inhibition of control SK(-) GAS strain, dose response, counter-screen for streptokinase expression inhibitor project, luminescence, kanamycin, BacTiterGlo, confirmation (AID 1900); type: functional, organism-based
Streptococcus = assay: Group A Streptococcus viability loss, dose response, counter-screen for streptokinase expression inhibitor project, luminescence, BacTiterGlo (AID 1915); type: functional, organism-based;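 note: potency for reduction of bacterial viability or growth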
[9] = biological target: Induced myeloid leukemia cell differentiation protein Mcl-1 (Homo sapiens, UniProt Q07820); type: functional
Protein RecA = biological target: T3, Protein RecA (Mycobacterium tuberculosis, UniProt P9WHJ3); assay: Fluorescence Cell-Free Homogeneous Dose Retest to Identify Inhibitors of RecA-Intein Splicing Activity. [Related pubchem assays (depositor defined):AID2097, AID2223, AID489010, AID492950]; type: functional
T3 sequence (P9WHJ3 whole entry): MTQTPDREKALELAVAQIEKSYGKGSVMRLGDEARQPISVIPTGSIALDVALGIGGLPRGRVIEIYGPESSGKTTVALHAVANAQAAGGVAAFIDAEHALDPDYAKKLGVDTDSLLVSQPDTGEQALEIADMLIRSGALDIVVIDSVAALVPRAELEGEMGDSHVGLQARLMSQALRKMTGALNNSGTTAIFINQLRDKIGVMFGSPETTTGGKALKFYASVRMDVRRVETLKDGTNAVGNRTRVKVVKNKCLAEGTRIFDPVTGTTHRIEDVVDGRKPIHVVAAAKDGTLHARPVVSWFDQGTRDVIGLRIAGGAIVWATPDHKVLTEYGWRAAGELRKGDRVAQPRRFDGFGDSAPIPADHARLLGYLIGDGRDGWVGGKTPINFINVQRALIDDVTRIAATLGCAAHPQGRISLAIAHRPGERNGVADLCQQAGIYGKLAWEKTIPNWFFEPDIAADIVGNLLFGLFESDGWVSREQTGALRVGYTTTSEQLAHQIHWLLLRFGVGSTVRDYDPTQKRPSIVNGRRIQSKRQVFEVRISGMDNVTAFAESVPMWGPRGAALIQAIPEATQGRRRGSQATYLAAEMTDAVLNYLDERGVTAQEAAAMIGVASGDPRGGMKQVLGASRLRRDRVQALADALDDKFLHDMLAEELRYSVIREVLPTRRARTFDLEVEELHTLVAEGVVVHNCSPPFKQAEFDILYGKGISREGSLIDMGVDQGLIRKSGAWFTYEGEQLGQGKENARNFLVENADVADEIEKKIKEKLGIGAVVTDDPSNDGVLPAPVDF

[10] = biological target: T4, Short transient receptor potential channel 4 (Mus musculus, UniProt Q9QUQ5); assay: mouse TRPC4 channel inhibitors, dose response, cell-based, HEK293 TRPC4/mu-opioid, Fluo-4 calcium (AID 434942); type: functional;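 note: potency of inhibitors blocking the TRPC4 calcium response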
T4 sequence (Q9QUQ5 whole entry): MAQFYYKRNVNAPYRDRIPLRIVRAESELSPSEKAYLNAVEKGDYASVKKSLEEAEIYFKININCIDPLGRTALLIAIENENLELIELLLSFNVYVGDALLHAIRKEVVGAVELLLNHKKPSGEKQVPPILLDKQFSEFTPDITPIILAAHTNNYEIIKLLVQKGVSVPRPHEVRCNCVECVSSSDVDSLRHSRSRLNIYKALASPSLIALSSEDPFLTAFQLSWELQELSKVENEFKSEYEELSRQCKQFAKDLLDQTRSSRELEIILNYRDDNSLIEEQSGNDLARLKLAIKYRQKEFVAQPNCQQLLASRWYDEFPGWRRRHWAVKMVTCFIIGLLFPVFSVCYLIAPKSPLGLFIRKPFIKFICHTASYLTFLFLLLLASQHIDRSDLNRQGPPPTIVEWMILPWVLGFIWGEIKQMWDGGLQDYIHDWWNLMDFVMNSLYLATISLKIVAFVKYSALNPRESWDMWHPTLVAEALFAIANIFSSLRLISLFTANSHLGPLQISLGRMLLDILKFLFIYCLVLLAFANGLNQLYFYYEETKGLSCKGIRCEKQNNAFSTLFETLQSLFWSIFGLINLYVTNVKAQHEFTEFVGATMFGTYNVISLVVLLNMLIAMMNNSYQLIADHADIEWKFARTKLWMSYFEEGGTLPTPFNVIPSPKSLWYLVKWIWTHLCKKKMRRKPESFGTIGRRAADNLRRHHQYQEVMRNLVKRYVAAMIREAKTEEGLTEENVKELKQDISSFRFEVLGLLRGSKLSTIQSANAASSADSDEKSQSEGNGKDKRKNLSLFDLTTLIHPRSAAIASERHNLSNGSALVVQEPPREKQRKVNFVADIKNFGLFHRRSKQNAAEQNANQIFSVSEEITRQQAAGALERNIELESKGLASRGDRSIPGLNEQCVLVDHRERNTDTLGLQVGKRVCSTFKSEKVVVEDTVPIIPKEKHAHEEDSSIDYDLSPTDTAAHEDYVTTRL

[11] = biological target: T5, Replicative DNA helicase DnaB (Mycobacterium tuberculosis, UniProt P9WMR3); assay: DnaB intein splicing inhibitors, dose response, biochemical, cell-free fluorescence (AID 449749); type: functional
T5 sequence (P9WMR3 whole entry): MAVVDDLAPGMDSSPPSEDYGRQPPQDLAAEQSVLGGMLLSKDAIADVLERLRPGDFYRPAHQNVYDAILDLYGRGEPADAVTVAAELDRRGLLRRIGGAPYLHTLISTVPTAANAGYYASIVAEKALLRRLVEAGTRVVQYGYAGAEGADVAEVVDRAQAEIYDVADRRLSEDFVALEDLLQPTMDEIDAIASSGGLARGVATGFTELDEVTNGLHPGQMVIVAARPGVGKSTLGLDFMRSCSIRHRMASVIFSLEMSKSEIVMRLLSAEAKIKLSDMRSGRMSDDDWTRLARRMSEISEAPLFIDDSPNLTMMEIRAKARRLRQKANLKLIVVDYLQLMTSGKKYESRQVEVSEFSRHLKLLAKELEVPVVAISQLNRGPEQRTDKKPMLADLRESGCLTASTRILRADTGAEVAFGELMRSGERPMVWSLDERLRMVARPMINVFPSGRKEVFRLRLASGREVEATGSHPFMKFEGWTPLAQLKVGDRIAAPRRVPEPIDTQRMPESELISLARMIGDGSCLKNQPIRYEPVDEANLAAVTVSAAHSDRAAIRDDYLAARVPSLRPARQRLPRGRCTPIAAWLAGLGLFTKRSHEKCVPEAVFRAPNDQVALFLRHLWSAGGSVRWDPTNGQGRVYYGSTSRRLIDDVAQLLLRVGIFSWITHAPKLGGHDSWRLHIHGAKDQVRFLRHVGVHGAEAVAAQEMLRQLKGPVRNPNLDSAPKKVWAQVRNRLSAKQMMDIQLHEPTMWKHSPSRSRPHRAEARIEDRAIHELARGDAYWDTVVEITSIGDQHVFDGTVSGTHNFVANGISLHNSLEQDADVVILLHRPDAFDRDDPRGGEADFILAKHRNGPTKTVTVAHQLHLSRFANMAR

HEK293 [12] = assay: NOD2 signaling inhibitors in MDP-stimulated cells, cell-based, uHTS, luminescence (AID 2001); type: functional; conditions: Homo sapiens
HEK293 [13] = assay: cells; type: functional, cell-based; conditions: Homo sapiens
INS1 = assay: beta cell apoptosis inhibitors, cytokine rescue, dose response, luminescence, retest (AID 449756); type: functional, cell-based; conditions: Rattus norvegicus;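 note: cell death triggered by IL-1 beta plus TNF-alpha plus IFN-gamma mixture; protective hits raise ATP signal compared with cytokine alone wells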
HEK293 [14] = assay: cells; type: functional, cell-based; conditions: Homo sapiens; remark: listed apart in the source
HEK293 [15] = assay: cells; type: functional, cell-based; conditions: Homo sapiens; remark: listed apart in the source
HEK293 [16] = assay: NOD1 signaling inhibitors, primary screen, cell-based, luminescence, uHTS (AID 1578); type: functional; conditions: Homo sapiens
[17] = biological target: Nucleotide-binding oligomerization domain-containing protein 2 (Homo sapiens, UniProt Q9HC29); assay: NOD2 signaling inhibitors, cell-based, luminescence, uHTS, HEK293 (AID 1566); type: functional

Cytochrome P450 3A4, sequence (P08684 whole entry): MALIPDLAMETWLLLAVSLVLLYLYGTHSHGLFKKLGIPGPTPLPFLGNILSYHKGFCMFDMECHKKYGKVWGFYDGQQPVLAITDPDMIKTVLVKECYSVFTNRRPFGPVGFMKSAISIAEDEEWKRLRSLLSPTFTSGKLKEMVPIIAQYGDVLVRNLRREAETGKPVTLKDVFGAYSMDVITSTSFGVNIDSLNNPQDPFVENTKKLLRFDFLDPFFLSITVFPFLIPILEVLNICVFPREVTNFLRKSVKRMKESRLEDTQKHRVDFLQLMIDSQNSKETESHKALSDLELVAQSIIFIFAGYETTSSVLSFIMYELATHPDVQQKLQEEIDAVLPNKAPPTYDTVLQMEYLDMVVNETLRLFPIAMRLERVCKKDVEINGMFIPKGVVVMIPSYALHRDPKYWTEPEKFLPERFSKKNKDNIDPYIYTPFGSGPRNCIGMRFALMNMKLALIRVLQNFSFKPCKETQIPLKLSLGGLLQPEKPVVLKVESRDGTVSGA

## CCC1=C2CC[C@H]3C(=O)N(CC(=O)OC)C(=O)[C@H]3[C@H]2[C@@]2(C)C(=O)N(CC3CC3)C(=O)N2C1=O
Cytochrome P450 3A4
  AC50: 7.94 µM (inconclusive)

## Cc1cc(C)nc(NC(=S)Nc2ccc(Br)cc2Cl)c1
[1]
  IC50: > 50 µM (inactive)
[2]
  IC50: 5.57 µM (active)

## CC(C)c1ccc(/C=C2\SC(=O)N(CC(=O)NC3CCS(=O)(=O)C3)C2=O)cc1 (stereo not drawn)
[1]
  IC50: > 50 µM (inactive)
[2]
  IC50: 12.4 µM (active)

## C[C@H]1CN(C2=C(Cl)C(=O)N(c3ccnc(Cl)c3)C2=O)CCN1
[3]
  IC50: > 50 µM (inconclusive)

## C[C@H]1C[C@]2(O[C@@H]2C)C(=O)O[C@@H]2CCN(C)C/C=C(/COC(=O)[C@]1(C)O)C2=O
Cytochrome P450 3A4
  AC50: 25.1 µM (inconclusive)

## Cc1ccc(C)c(NC(=O)C2CC(O)CN2C(=O)Oc2ccccc2)c1 (stereo not drawn)
[4]
  EC50: > 260 µM (inactive)
[5]
  IC50: 10 µM (active)
[6]
  IC50: 10.4 µM (active)

## Cc1ccccc1/C=C/c1cc[n+](C)cc1
[5]
  IC50: 2.33 µM (active)
[6]
  IC50: 3.38 µM (active)

## O=C(O)c1cc(-c2ccco2)nn1-c1ccc(Cl)cc1
[1]
  IC50: 22.1 µM (active)
[7]
  IC50: 50 µM (inactive)
[2]
  IC50: 5.13 µM (active)

## Cc1[nH]n(-c2ccccc2)c(=O)c1/C=C1/C(=O)NN(c2ccc(F)c(Cl)c2)C1=O
[8]
  EC50: 4.06 µM (active)
Streptococcus
  EC50: 7.24 µM (active)
[9]
  IC50: 5.78 µM (active)
Protein RecA
  EC50: 12 µM (active)
[10]
  EC50: 5.31 µM (active)
[11]
  AC50: 4.54 µM (active)

## FC(F)(F)c1cnc(NN=C(S)Nc2ccccc2Cl)c(Cl)c1
HEK293 [12]
  IC50: 6.98 µM (inactive)
HEK293 [13]
  IC50: 15.1 µM (active)
INS1
  AC50: 7.04 µM (active)
HEK293 [14]
  IC50: > 20 µM (inactive)
HEK293 [15]
  IC50: 6.49 µM (active)
HEK293 [16]
  EC50: 6.06 µM (active)

## COc1ccc(N2CCN(C3=C(Cl)C(=O)N(c4cccc(OC)c4)C3=O)CC2)cc1
[3]
  IC50: > 50 µM (inconclusive)

## CCN(CC)c1ccc(S(=O)(=O)N2CCOCC2)cc1NC(=O)CN1CCc2ccccc2C1
[17]
  EC50: 11.5 µM (active)
HEK293 [12]
  IC50: 11.5 µM (inactive)
HEK293 [13]
  IC50: > 20 µM (inactive)
HEK293 [14]
  IC50: > 20 µM (inactive)
HEK293 [15]
  IC50: 7.07 µM (active)
HEK293 [16]
  EC50: 10.5 µM (active)

## CCCn1c(C)nc2c(NCCCCN(CC)CC)nc(C)nc21
Cytochrome P450 3A4
  AC50: 20 µM (inconclusive)

## O=C(NCCO)c1cc(-c2ccc(F)cc2F)n[nH]1
[3]
  IC50: > 10 µM (inconclusive)

## Cc1ccc(N)cc1Cl
Cytochrome P450 3A4
  AC50: 12.6 µM (inconclusive)

## FC(F)(F)c1cnc(NNC(=S)Nc2ccccc2Cl)c(Cl)c1
[17]
  EC50: 11 µM (active)
